# Assay results as given in patent publication US12486218B2, “Compounds advantageous in the treatment of central nervous system diseases and disorders” (AurimMed Pharma, Inc., priority 2008, dated 2025).
# How the values were obtained:
# rats [1] = assay: Pilocarpine-induced Status Epilepticus in Rats (prevention; intervention @ 30 min); conditions: Rattus norvegicus
# Experimental: The animal testing was performed using the protocols developed in the Anticonvulsant Screening Program (ASP) at the National Institute of Neurological Disorders and Stroke (NINDS), National Institutes of Health (NIH).
# rats [2] = assay: MES test, rats p.o.; type: in vivo; conditions: at 30 mg/kg
# [3] = tested on: inclusion of exon 7 in SMN2 mRNAs; assay: Exon 7 inclusion BLA reporter assay in NSC34 cell line; type: cell-based; conditions: for effect on the inclusion of exon 7 in SMN2 transcripts / exon 7 test, particularly strong hits: NSC34 exon 7 BLA reporter cells; for Exon 7 inclusion (summary YES/NO): Table 13 summary
# Text: To measure changes in the inclusion of exon 7 in SMN2 mRNAs, another NSC34 cell line was used that stably transfected with a reporter construct which expresses BLA when exon 7 is included in the SMN2 minigene mRNAs. 5-(N-ethyl-N-isopropyl)-amiloride (EIPA) was used as a positive control for this assay. Data for tis assay is illustrated in FIG. 30.
# SMN2 promoter = SMN2 promoter β-lactamase reporter assay in NSC34 motor neuron-like cells; type: cell-based; conditions: for Promoter (SMN2 promoter test, summary YES/NO): Table 13 summary; for SMN2 promoter activity: treatment for 19 hours at a concentration of 1 μM
# Experimental: FIG. 30 illustrates a screen for SMN2 expression of a number of compounds described herein.
# SMN2 promoter activity was measured using NSC34 motor neuron-like cells stably transfected with a β-lactamase (BLA) reporter gene under the control of a 3.4-kilobase fragment of the SMN2 promoter. D156844 was used as a positive control for this assay.
# mice [4] = assay: 6 Hz (minimal clonic seizure) model, mice i.p.; type: in vivo; conditions: for 6 Hz (32 mA), fraction of animals: mice i.p.
# mice [5] = assay: Maximal Electroshock Seizure (MES) test, mice i.p.; type: in vivo; conditions: for activity in the MES test: mice
# mice [6] = assay: Minimal motor impairment (MID50), mice i.p.; conditions: mice i.p.; for MID50, fraction of animals: 100 mg/kg @ 0.5 hr
# Experimental: The animal testing was performed according to methods known in the relevant art.
# mice [7] = assay: Subcutaneous Metrazol Seizure threshold (s.c. MET) test, mice i.p.; type: in vivo; conditions: for activity in the s.c. MET test: mice
# [8] = tested on: rat dopaminergic N27 cells; assay: N27 protection assay against oxidative stress (H2O2 or MPP+; MTT and LDH); type: cell-based; conditions: drug 24 hours before 200 μM H2O2 or 640 μM MPP+
# Text: FIGS. 20A-25D data are shown illustrating neuroprotective and neuroregenerative effects observed in rat dopaminergic N27 cells. Rat dopaminergic N27 cells are commonly used in in vitro and in vivo model systems for studying Parkinson's disease. Parkinson's disease is a neurodegenerative disorder of the central nervous system that affects more than 6 million people worldwide. The motor symptoms of Parkinson's disease result from the death of dopamine generating cells in the substantia nigra, a region of the midbrain.
# The N27 rat dopaminergic neuron cell line was harvested from E12 rat mesencephalic tissue and was transfected with SV40 to immortalize the cell line. The N27 cell line, when injected into the striata of 6-hydroxydopamine-lesioned rats (an animal model of PD) caused a time-dependent improvement in neurological deficits. This immortalized cell line has been carefully characterized in studies of dopamine biosynthesis, neurotoxicity and used as a dopaminergic neuron model studies.
# The N27 in vitro Parkinson's disease model included a test of cell viability and cell toxicity in response to exposure to oxidative stress (e.g., either 200 μM H2O2 or 640 μM MPP+).
# Cell viability was tested using the MTT assay. The MTT assay is a colorimetric analysis based on the activities of mitochondrial NAD(P)H-dependent cellular oxidoreductase enzymes. These enzymes are capable of reducing the tetrazolium dye, MTT [3-(4,5-dimethylthiazol-2-yl)-2,5-diphenyltetrazolium] bromide, to an insoluble formazan (purple). […] More viable cells equal more accumulation of the insoluble formazan dye.
# Cell toxicity was tested using the […] (LDH) assay. Cells that are stressed secrete LDH. In general, the more cells are stressed, the LDH they secrete into their media. The LDH assay is a reliable colorimetric assay to measure quantitatively the […] (LDH) that is released into the cell culture media from damaged cells as a biomarker for cytotoxicity and cytolysis.
# FIGS. 20A-25D present data from two types of assays: protection and recovery assays. In the protection assays, the drug candidate was applied to the cells at various concentrations for 24 hours, followed by the exposure to oxidative stress (either 200 μM H2O2 or 640 μM MPP+) for measuring neuroprotective effect. H2O2 provides a broad measure of oxidative stress, while MPP+ gives a more specific oxidative stress to dopaminergic neurons.
# The protection assay results are shown in panels A-C of FIGS. 20-25 In the recovery assays, the cells were first damaged by exposure to H2O2 and then various concentrations of the drug were applied to the cells. The results for the recovery assays are shown the D panels of FIGS. 20-25.
# mice [9] = assay: Corneal kindled mouse model; type: in vivo; conditions: mice i.p.; 100 mg/kg @ 0.25 hr
# [10] = 0.5 h, read-out: Intervention @ 30 min, Protection
# [11] = read-out: Prevention, Protection
structure (smiles),measurement,setting,value
"COc1ccc(C(CC(N)=O)C2CC2)cc1 (stereo not drawn) [AM, 3-Cyclopropyl-3-(4-methoxy-phenyl)-propionamide]",responders at 400 mg/kg,rats [1]; [10],38%
same,responders at 200 mg/kg,rats [1]; [11],100%
same,activity in the MES test,rats [2],activity
same,effect on the inclusion of exon 7 in SMN2 transcripts,[3],positive effect on the inclusion of exon 7
same,"exon 7 test, particularly strong hits",[3],Particularly strong hits
same,Exon 7 inclusion (summary YES/NO),[3],YES
same,"SMN2 promoter assay, particularly strong hits",SMN2 promoter; NSC34 BLA reporter cells,Particularly strong hits
same,"Promoter (SMN2 promoter test, summary YES/NO)",SMN2 promoter,YES
same,SMN2 promoter activity,SMN2 promoter,increased SMN2 promoter activity
same,"6 Hz (32 mA), fraction of animals",mice [4]; 100 mg/kg @ 0.25 hr,1/4
same,"6 Hz (32 mA), fraction of animals",mice [4]; 100 mg/kg @ 0.5 hr,2/4
same,"6 Hz (32 mA), fraction of animals",mice [4]; 100 mg/kg @ 1.0 hr,1/4 @
same,"MES, fraction of animals","mice [5]; mice i.p., 100 mg/kg @ 0.25 hr",1/3 @
same,activity in the MES test,mice [5]; at 100 mg/kg,activity
"CC(CC(N)=O)c1ccccc1OC(F)(F)F (stereo not drawn) [BU, 3-[2-(trifluoromethoxy)-phenyl]butyramide]",responders at 127 mg/kg,rats [1]; [10],50%
same,responders at 65 mg/kg,rats [1]; [11],100%
same,effect on the inclusion of exon 7 in SMN2 transcripts,[3],positive effect on the inclusion of exon 7
same,"exon 7 test, particularly strong hits",[3],Particularly strong hits
same,Exon 7 inclusion (summary YES/NO),[3],YES
same,"MID50, fraction of animals",mice [6],5/8 @
same,"SMN2 promoter assay, particularly strong hits",SMN2 promoter; NSC34 BLA reporter cells,Particularly strong hits
same,"Promoter (SMN2 promoter test, summary YES/NO)",SMN2 promoter,YES
same,SMN2 promoter activity,SMN2 promoter,increased SMN2 promoter activity
same,"MES, fraction of animals","mice [5]; mice i.p., 100 mg/kg @ 0.5 hr",3/3
same,"MES, fraction of animals","mice [5]; mice i.p., 100 mg/kg @ 4.0 hr",2/3
same,activity in the MES test,mice [5]; at 100 mg/kg,activity
"CC(CC(N)=O)c1ccc(Cl)cc1 (stereo not drawn) [BV, 3-[4-chloro-phenyl]butyramide]",activity in the MES test,rats [2],activity
same,"MES, fraction of animals","mice [5]; mice i.p., 100 mg/kg @ 0.5 hr",2/3 @
same,activity in the MES test,mice [5]; at 100 mg/kg,activity
NC(=O)CC1(c2ccc(Cl)cc2)CC1 [AH],MID50 (TD50),mice [6]; @ 0.25 hr,185.73
same,s.c. MET ED50,"mice [7]; mice i.p., @ 0.25 hr, in mg/kg",77.98
same,neuroprotective effect against H2O2 and MPP+ oxidative stresses (MTT and LDH assays),[8],"statistically significant, dose-dependent neuroprotection"
same,MES ED50,"mice [5]; mice i.p., @ 0.25 hr",69.6 mg/kg
"NC(=O)[C@@H]1C[C@H]1c1ccccc1 (relative stereo) [Compound P, trans-2-phenylcyclopropane-1-carboxamide]",responders at 450 mg/kg,rats [1]; [11],100%
same,activity in the MES test,rats [2],activity
same,activity in the MES test,mice [5]; at 300 mg/kg,activity
"NC(=O)CC(c1ccc(F)cc1)C1CC1 (stereo not drawn) [Y, 3-Cyclopropyl-3-(4-fluoro-phenyl)propionamide]",responders at 65 mg/kg,rats [1]; [11],88%
same,"Corneal Kindled, Average seizure score",mice [9],"0: (0, 0,"
same,"Corneal Kindled, fraction of animals",mice [9],4/4 @
same,"s.c. MET, fraction of animals","mice [7]; mice i.p., 100 mg/kg @ 0.5 hr","2/5 @0.5 hrs,"
same,activity in the s.c. MET test,mice [7]; at 100 mg/kg,activity
same,SMN2 promoter activity,SMN2 promoter,increased SMN2 promoter activity
same,activity in the 6 Hz (minimal clonic seizure) model,"mice [4]; mice, at 100 mg/kg",activity
same,activity in the MES test,mice [5]; at 100 mg/kg,activity
"COc1ccc(C(CC(N)=O)C(C)C)cc1C (stereo not drawn) [AS, 3-(4-Methoxy-3-methyl-phenyl)-4-methylpentanoic acid amide]",responders at 200 mg/kg,rats [1]; [11],100%
same,activity in the MES test,rats [2],activity
same,"Promoter (SMN2 promoter test, summary YES/NO)",SMN2 promoter,YES
same,SMN2 promoter activity,SMN2 promoter,increased SMN2 promoter activity
same,neuroprotective effect against H2O2 and MPP+ oxidative stresses (MTT and LDH assays),[8],potent dose-dependent neuroprotective effects
same,activity in the MES test,mice [5]; at 100 mg/kg,activity
"CC(CC(=O)N1CCCC1)c1ccc(OC(F)(F)F)cc1 (stereo not drawn) [BG, 1-Pyrrolidin-1-yl-3-(4-trifluoromethoxy-phenyl)-butan-1-one]",activity in the MES test,rats [2],activity
same,"MES, fraction of animals","mice [5]; mice i.p., 100 mg/kg @ 0.5 hr",1/3 @
same,activity in the MES test,mice [5]; at 100 mg/kg,activity
"CC(C)C(CC(N)=O)c1ccc(F)cc1 (stereo not drawn) [AQ, 3-(4-Fluoro-phenyl)-4-methyl-pentanoic acid-amide]",responders at 65 mg/kg,rats [1]; [11],86%
same,activity in the MES test,rats [2],activity
same,activity in the s.c. MET test,mice [7]; at 300 mg/kg,activity
same,"SMN2 promoter assay, evidence of activity (may warrant further study)",SMN2 promoter; NSC34 BLA reporter cells,show evidence of activity
same,activity in the MES test,mice [5]; at 100 mg/kg,activity
"CC(CC(=O)N(C)C)c1ccc(OC(F)(F)F)cc1 (stereo not drawn) [BD, N,N-Dimethyl-3-(4-trifluoromethoxy-phenyl)-butyramide]","MID50, fraction of animals",mice [6],"4/8 @ 0.5 hrs,"
same,activity in the s.c. MET test,mice [7]; at 300 mg/kg,activity
same,"6 Hz (32 mA), fraction of animals",mice [4]; 100 mg/kg @ 2.0 hr,"2/4 @ 0.5,"
same,"MES, fraction of animals","mice [5]; mice i.p., 100 mg/kg @ 0.5 hr",1/1 @
same,activity in the MES test,mice [5]; at 100 mg/kg,activity
CC(O)(CC(N)=O)c1cccc(C(F)(F)F)c1 (racemic) [CE],"MID50, fraction of animals",mice [6],"3/8 @ 0.5 hr,"
same,"s.c. MET, fraction of animals","mice [7]; mice i.p., 30 mg/kg @ 0.5 hr","1/5 @ 0.5 hr,"
same,"s.c. MET, fraction of animals","mice [7]; mice i.p., 100 mg/kg @ 0.5 hr","1/1 @ 0.5 hr,"
same,"MES, fraction of animals","mice [5]; mice i.p., 30 mg/kg @ 0.50 hr",1/1 @
"NC(=O)CC(c1ccc(Cl)cc1)C1CC1 (stereo not drawn) [X, 3-(4-Chloro-phenyl)-3-cyclopropyl-propionamide]",activity in the MES test,rats [2],activity
same,"Corneal Kindled, Average seizure score",mice [9],score is 3:
same,"Corneal Kindled, fraction of animals",mice [9],2/4 @
same,activity in the s.c. MET test,mice [7]; at 300 mg/kg,activity
same,"Promoter (SMN2 promoter test, summary YES/NO)",SMN2 promoter,YES
same,SMN2 promoter activity,SMN2 promoter,increased SMN2 promoter activity
same,neuroprotective effect against H2O2 and MPP+ oxidative stresses (MTT and LDH assays),[8],"statistically significant, dose-dependent neuroprotection"
same,"6 Hz (32 mA), fraction of animals",mice [4]; 75 mg/kg @ 1.0 hr,4/4
same,"6 Hz (32 mA), fraction of animals",mice [4]; 75 mg/kg @ 2.0 hr,2/4
same,"6 Hz (32 mA), fraction of animals",mice [4]; 75 mg/kg @ 4.0 hr,1/4 @
same,activity in the MES test,mice [5]; at 100 mg/kg,activity
"CNC(=O)CC(C)(C)c1ccc(Cl)cc1 [Compound B, 3-(4-Chlorophenyl)-3,N-dimethylbutyramide]",responders at 300 mg/kg,rats [1]; [11],43%
same,"MID50, fraction of animals",mice [6],2/8 @0.5 hr
same,neuroprotective effect against H2O2 and MPP+ oxidative stresses (MTT and LDH assays),[8],potent dose-dependent neuroprotective effects
